Source: patent US20260274807A1 (University of Health Sciences and Pharmacy in St. Louis, priority 2023, published 2026)

Experiments:
[1] = biological target: T1, ERRα (Homo sapiens, UniProt P11474); test: ERRE luciferase reporter assay in HEK293 cells transfected with pcDNA3.1 ERRα; format: cell-based; design: key to EC50 (ERRα) μM: * <1 μM; ** 1-5 μM; *** >5 μM; i.a. (inactive); details: HEK293 cells transfected with ERRE reporter construct and pcDNA3.1 ERRα; compound for 24 hours; luciferase activity
T1 construct: expressed in transfected cells; host or cells: HEK293
T1 sequence (P11474 1-423): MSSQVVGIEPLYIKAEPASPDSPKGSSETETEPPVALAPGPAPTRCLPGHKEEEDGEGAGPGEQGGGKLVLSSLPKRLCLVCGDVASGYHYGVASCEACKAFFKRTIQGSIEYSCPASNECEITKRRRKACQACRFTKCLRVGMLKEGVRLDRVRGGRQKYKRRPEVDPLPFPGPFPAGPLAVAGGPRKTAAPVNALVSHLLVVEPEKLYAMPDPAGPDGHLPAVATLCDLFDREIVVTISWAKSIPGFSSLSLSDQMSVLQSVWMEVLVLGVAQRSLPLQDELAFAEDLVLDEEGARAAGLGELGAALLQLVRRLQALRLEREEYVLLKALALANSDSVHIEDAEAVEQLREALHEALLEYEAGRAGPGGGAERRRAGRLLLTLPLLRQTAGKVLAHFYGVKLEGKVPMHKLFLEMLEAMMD

[2] = biological target: T2, ERRγ (Homo sapiens, UniProt P62508); test: ERRE luciferase reporter assay in HEK293 cells transfected with pcDNA3.1 ERRγ; format: cell-based; design: key to EC50 (ERRγ) μM: * <1 μM; ** 1-5 μM; *** >5 μM; i.a. (inactive); details: HEK293 cells transfected with ERRE reporter construct and pcDNA3.1 ERRγ; compound for 24 hours; luciferase activity
T2 construct: expressed in transfected cells; host or cells: HEK293
T2 sequence (P62508 1-458): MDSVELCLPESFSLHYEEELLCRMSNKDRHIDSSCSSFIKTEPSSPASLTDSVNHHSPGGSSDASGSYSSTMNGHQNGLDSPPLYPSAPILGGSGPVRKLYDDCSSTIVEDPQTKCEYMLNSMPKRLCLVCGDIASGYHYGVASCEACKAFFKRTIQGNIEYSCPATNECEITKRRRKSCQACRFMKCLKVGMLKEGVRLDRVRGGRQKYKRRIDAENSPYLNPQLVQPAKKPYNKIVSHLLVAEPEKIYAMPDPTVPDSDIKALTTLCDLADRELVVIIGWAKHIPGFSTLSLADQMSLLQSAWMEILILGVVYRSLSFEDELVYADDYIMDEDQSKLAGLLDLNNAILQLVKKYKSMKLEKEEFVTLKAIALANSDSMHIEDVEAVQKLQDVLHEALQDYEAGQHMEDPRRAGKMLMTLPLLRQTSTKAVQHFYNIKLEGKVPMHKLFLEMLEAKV

Compound	EC50 [1]	EC50 [2]	EC50 (ERRα) μM [1]	EC50 (ERRγ) μM [2]
COc1cccc(-c2nnc(-c3cccc(C(F)(F)F)c3)o2)c1 [Entry 66, 2-(3-methoxyphenyl)-5-(3-(trifluoromethyl)phenyl)-1,3,4-oxadiazole]	1000 to 5000 nM	1000 to 5000 nM	–	–
Clc1ccc(-c2nnc(-c3ccccc3)s2)cc1 [Entry 1017, 2-(4-chlorophenyl)-5-phenyl-1,3,4-thiadiazole]	< 1000 nM	< 1000 nM	–	–
O=[N+]([O-])c1ccccc1Cc1nnc(-c2ccc(C(F)(F)F)cc2)s1 [Entry 1028, 2-(2-nitrobenzyl)-5-(4-(trifluoromethyl)phenyl)-1,3,4-thiadiazole]	1000 to 5000 nM	1000 to 5000 nM	–	–
O=[N+]([O-])c1cccc(-c2nnc(-c3ccccc3)o2)c1 [Entry 81, 2-(3-nitrophenyl)-5-phenyl-1,3,4-oxadiazole]	1000 to 5000 nM	1000 to 5000 nM	–	–
COc1ccc(-c2nnc(-c3cccc(C(F)(F)F)c3)o2)cc1	1000 to 5000 nM	> 5000 nM	–	–
FC(F)(F)c1cccc(-c2nnc(-c3ccccn3)s2)c1 [Entry 1008, 2-(pyridin-2-yl)-5-(3-(trifluoromethyl)phenyl)-1,3,4-thiadiazole]	< 1000 nM	< 1000 nM	–	–
O=[N+]([O-])c1ccccc1-c1nnc(-c2ccc(Cl)cc2)o1 [Entry 92, 2-(4-chlorophenyl)-5-(2-nitrophenyl)-1,3,4-oxadiazole]	> 5000 nM	> 5000 nM	–	–
COc1ccc(-c2nnc(-c3ccc(N(C)C)cc3)o2)cc1 [Entry 21, 4-(5-(4-methoxyphenyl)-1,3,4-oxadiazol-2-yl)-N,N-dimethylaniline]	1000 to 5000 nM	1000 to 5000 nM	–	–
Clc1ccc(-c2nnc(-c3ccc(Cl)cc3)o2)cc1 [Entry 6]	< 1000 nM	< 1000 nM	–	–
Nc1ccc(-c2nnc(-c3ccccc3)s2)cc1 [Entry 1030, 4-(5-phenyl-1,3,4-thiadiazol-2-yl)aniline]	< 1000 nM	< 1000 nM	–	–
Oc1ccc(-c2nnc(-c3ccc4ccccc4n3)s2)cc1 [Entry 1047, 4-(5-(quinolin-2-yl)-1,3,4-thiadiazol-2-yl)phenol]	–	–	i.a.	i.a.
COc1ccc(-c2nnc(-c3ccccc3)s2)c(N)c1 [Entry 1026, 5-methoxy-2-(5-phenyl-1,3,4-thiadiazol-2-yl)aniline]	> 5000 nM	> 5000 nM	–	–
COc1ccc(-c2nnc(-c3ccccc3)s2)cc1 [Entry 1001, 2-(4-methoxyphenyl)-5-phenyl-1,3,4-thiadiazole]	< 1000 nM	< 1000 nM	–	–
O=[N+]([O-])c1ccc(-c2nnc(-c3ccc(C(F)(F)F)cc3)o2)cc1 [Entry 52, 2-(4-nitrophenyl)-5-(4-(trifluoromethyl)phenyl)-1,3,4-oxadiazole]	> 5000 nM	> 5000 nM	–	–
O=[N+]([O-])c1ccc(-c2nnc(-c3ccc([N+](=O)[O-])cc3)o2)cc1 [Entry 13, 2,5-bis(4-nitrophenyl)-1,3,4-oxadiazole]	1000 to 5000 nM	1000 to 5000 nM	–	–
Cc1ccc(-c2nnc(-c3cccc(Cl)c3)s2)cc1 [Entry 1045, 2-(3-chlorophenyl)-5-(p-tolyl)-1,3,4-thiadiazole]	< 1000 nM	< 1000 nM	–	–
Nc1ccccc1-c1nnc(-c2ccccc2)o1 [Entry 68, 2-(5-phenyl-1,3,4-oxadiazol-2-yl)aniline]	1000 to 5000 nM	1000 to 5000 nM	–	–
Cc1ccc(-c2nnc(-c3ccc(C)o3)o2)cc1 [Entry 32, 2-(5-methylfuran-2-yl)-5-(p-tolyl)-1,3,4-oxadiazole]	< 1000 nM	< 1000 nM	–	–
c1ccc(-c2nnc(-c3ccccc3)s2)cc1 [Entry 1004, 2,5-diphenyl-1,3,4-thiadiazole]	< 1000 nM	< 1000 nM	–	–
Cc1ccccc1-c1nnc(-c2ccccc2)s1 [Entry 1015, 2-phenyl-5-(o-tolyl)-1,3,4-thiadiazole]	< 1000 nM	< 1000 nM	–	–
COc1ccc(-c2nnc(-c3ccccc3[N+](=O)[O-])o2)cc1 [Entry 82, 2-(4-methoxyphenyl)-5-(2-nitrophenyl)-1,3,4-oxadiazole]	< 1000 nM	< 1000 nM	–	–
c1ccc(-c2nnc(-c3ccnc4ccccc34)o2)cc1 [Entry 15, 2-phenyl-5-(quinolin-4-yl)-1,3,4-oxadiazole]	–	–	i.a.	i.a.
Cc1ccc(-c2nnc(-c3cccc([N+](=O)[O-])c3)o2)cc1 [Entry 38, 2-(3-nitrophenyl)-5-(p-tolyl)-1,3,4-oxadiazole]	< 1000 nM	< 1000 nM	–	–
Clc1ccccc1-c1nnc(-c2nccs2)s1 [Entry 1061, 2-(2-chlorophenyl)-5-(thiazol-2-yl)-1,3,4-thiadiazole]	> 5000 nM	> 5000 nM	–	–
COc1ccc(-c2nnc(-c3cccs3)s2)cc1 [Entry 1022, 2-(4-methoxyphenyl)-5-(thiophen-2-yl)-1,3,4-thiadiazole]	< 1000 nM	< 1000 nM	–	–
Cc1ccc(-c2nnc(-c3nccs3)s2)cc1 [Entry 1060, 2-(thiazol-2-yl)-5-(p-tolyl)-1,3,4-thiadiazole]	< 1000 nM	< 1000 nM	–	–
COc1ccc(-c2nnc(-c3ccc(C)cc3)o2)cc1 [Entry 42, 2-(4-methoxyphenyl)-5-(p-tolyl)-1,3,4-oxadiazole]	< 1000 nM	< 1000 nM	–	–
O=[N+]([O-])c1ccc(-c2nnc(-c3ccccc3)o2)cc1 [Entry 7, 2-(4-nitrophenyl)-5-phenyl-1,3,4-oxadiazole]	< 1000 nM	< 1000 nM	–	–
